The target in assay [1] is IDH1 R132H (Homo sapiens, UniProt O75874, R132H). The assay can be described thus: Assay for IDH1 R132H inhibitors (NADPH/aKG, resazurin detection). To be noted: enzyme assay of Example 12; read-out: IDH1R132H IC50. It counts as biochemical. An outline of the steps:
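Compound added to substrate mix (8 uM NADPH, 2 mM aKG), then enzyme mix (0.2 μg/ml IDH1 R132H); 50 min RT in 20 mM Tris pH 7.5, 150 mM NaCl, 10 mM MgCl2, 0.03% BSA. Resazurin detection mix (30 μM) 5 min RT; resorufin fluorescence Ex544/Em590.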
For orientation: The colour change of resazurin is a common sign of viable cells or microbes.

In assay [2] the test system is HT1080 cells. The assay is described as follows: Cellular assay for IDH1m inhibitors: inhibition of 2-HG production (LC-MS, 48 hours) in HT1080 cells. The class given is cell-based. To be noted: Homo sapiens, HT-1080; inhibition of 2-HG production, HT1080 cells; read-out: HT1080 IC50. An outline of the steps:
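Each cell line is plated at 5000 cells/well in DMEM with 10% FBS and left overnight at 37 °C. Test compounds are then added for 48 h, after which 2-HG in the medium is determined by LC-MS; IC50 reflects 50% reduction compared with control.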

In assay [3] the test system is U87MG cells. The assay can be described thus: Cellular assay for IDH1m inhibitors: inhibition of 2-HG production (LC-MS, 48 hours) in U87MG cells. The class given is cell-based. To be noted: Homo sapiens, U-87 MG, inhibition of 2-HG production, U87R132H cells; read-out: U87R132H IC50. How it is done:
Cells (e.g., HT1080 or U87MG) and are grown in T125 flasks in DMEM containing 10% FBS, 1× penicillin/streptomycin and 500 ug/mL G418. They are harvested by trypsin and seeded into 96 well white bottom plates at a density of 5000 cell/well in 100 ul/well in DMEM with 10% FBS. No cells are plates in columns 1 and 12. Cells are incubated overnight at 37° C. in 5% CO2. The next day compounds are made up at 2× concentration and 100 ul are added to each cell well. The final concentration of DMSO is 0.2% and the DMSO control wells are plated in row G. The plates are then placed in the incubator for 48 hours. At 48 hours, 100 μl of media is removed from each well and analyzed by LC-MS for 2-HG concentrations. The cell plate is placed back in the incubator for another 24 hours. At 72 hours post compound addition, 10 mL/plate of Promega Cell Titer Glo reagent is thawed and mixed. The cell plate is removed from the incubator and allowed to equilibrate to room temperature. Then 100 ul of reagent is added to each well of media. The cell plate is then placed on an orbital shaker for 10 minutes and then allowed to sit at room temperature for 20 minutes. The plate is then read for luminescence with an integration time of 500 ms.
The IC50 for inhibition of 2-HG production (concentration of test compound to reduce 2HG production by 50% compared to control) in these two cell lines for various compounds of formula I is set forth in Table 4 above.

Where only a bound is given, the exact number is not on record here.

Sequence of IDH1 R132H (O75874 whole entry R132H): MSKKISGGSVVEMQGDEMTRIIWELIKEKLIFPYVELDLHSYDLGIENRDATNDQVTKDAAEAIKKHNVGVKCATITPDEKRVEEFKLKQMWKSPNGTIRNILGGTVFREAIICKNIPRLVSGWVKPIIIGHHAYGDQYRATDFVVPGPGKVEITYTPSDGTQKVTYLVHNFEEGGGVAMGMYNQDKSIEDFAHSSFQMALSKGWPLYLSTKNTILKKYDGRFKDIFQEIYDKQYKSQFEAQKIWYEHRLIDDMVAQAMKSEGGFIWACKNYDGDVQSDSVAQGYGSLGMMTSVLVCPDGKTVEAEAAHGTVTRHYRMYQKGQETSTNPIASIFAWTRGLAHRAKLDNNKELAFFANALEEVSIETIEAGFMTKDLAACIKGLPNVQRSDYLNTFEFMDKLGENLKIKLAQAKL

A word on the IC50: it is the concentration that inhibits the measured activity by half. With `COCCC(=O)N1CCN(c2nc(C3CC3)c(-c3ccc(OC(F)(F)F)cc3)c(C)c2C#N)C[C@H]1C` [Compound 263, (R)-6-cyclopropyl-2-(4-(3-methoxypropanoyl)-3-methylpiperazin-1-yl)-4-methyl-5-(4-(trifluoromethoxy)phenyl)nicotinonitrile], the IC50 in assay [1] was less than 500 nM; in assay [2] it was 500 to 1000 nM; in assay [3], 1000 to 10000 nM.

Consider `COCCC(=O)N1CCN(c2nc(C3CC3)c(-c3ccc(F)cc3F)c(C)c2C#N)C[C@H]1C` [Compound 264, 6-cyclopropyl-5-(2,4-difluorophenyl)-2-((R)-4-(3-methoxypropanoyl)-3-methylpiperazin-1-yl)-4-methylnicotinonitrile], for which the IC50 was in the range of 500 to 1000 nM in assay [1], 1000 to 10000 nM in assay [2] and 1000 to 10000 nM in assay [3].

Turning to `COCCC(=O)N1CCN(c2nc(C3CC3)c(-c3cccc(F)c3)c(C)c2C#N)C[C@H]1C` [Compound 265, (R)-6-cyclopropyl-5-(3-fluorophenyl)-2-(4-(3-methoxypropanoyl)-3-methylpiperazin-1-yl)-4-methylnicotinonitrile], the IC50 in assay [1] is less than 500 nM; in assay [2], 1000 to 10000 nM; in assay [3], 1000 to 10000 nM.

Take `COCCC(=O)N1CCN(c2nc(C3CC3)c(-c3ccc(C)c(F)c3)c(C)c2C#N)C[C@H]1C` [Compound 266, (R)-6-cyclopropyl-5-(3-fluoro-4-methylphenyl)-2-(4-(3-methoxypropanoyl)-3-methylpiperazin-1-yl)-4-methylnicotinonitrile]: the IC50 in assay [1] is less than 500 nM; in assay [2], 1000 to 10000 nM; in assay [3], 1000 to 10000 nM.

Turning to `COCCC(=O)N1CCN(c2nc(C3CC3)c(-c3ccc4ccccc4c3)c(C)c2C#N)C[C@H]1C` [Compound 267, (R)-6-cyclopropyl-2-(4-(3-methoxypropanoyl)-3-methylpiperazin-1-yl)-4-methyl-5-(naphthalen-2-yl)nicotinonitrile], the IC50 in assay [1] was 500 to 1000 nM; in assay [2], 1000 to 10000 nM; in assay [3], 1000 to 10000 nM.

With `COCCC(=O)N1CCN(c2nc(C3CC3)c(-c3ccncc3)c(C)c2C#N)C[C@H]1C` [Compound 268, (R)-2-cyclopropyl-6-(4-(3-methoxypropanoyl)-3-methylpiperazin-1-yl)-4-methyl-3,4′-bipyridine-5-carbonitrile], the IC50 in assay [1] lay within 500 to 1000 nM; in assay [2] it was 1000 to 10000 nM; in assay [3], 1000 to 10000 nM.

On to `COCCC(=O)N1CCN(c2nc(C3CC3)c(-c3ccc4c(c3)OCO4)c(C)c2C#N)C[C@H]1C` [Compound 269, (R)-5-(benzo[d][1,3]dioxol-5-yl)-6-cyclopropyl-2-(4-(3-methoxypropanoyl)-3-methylpiperazin-1-yl)-4-methylnicotinonitrile], for which the IC50 was less than 500 nM in assay [1], 1000 to 10000 nM in assay [2] and 1000 to 10000 nM in assay [3].

Consider `COCCC(=O)N1CCN(c2nc(C3CC3)c(-c3ccsc3)c(C)c2C#N)C[C@H]1C` [Compound 270, (R)-6-cyclopropyl-2-(4-(3-methoxypropanoyl)-3-methylpiperazin-1-yl)-4-methyl-5-(thiophen-3-yl)nicotinonitrile], for which the half-inhibitory concentration (IC50) in assay [1] lay within 500 to 1000 nM; in assay [2] it was 1000 to 10000 nM; in assay [3], 1000 to 10000 nM.

Turning to `COCCC(=O)N1CCN(c2nc(C3CC3)c(-c3ccc(F)c(Cl)c3)c(C)c2C#N)C[C@H]1C` [Compound 271, (R)-5-(3-chloro-4-fluorophenyl)-6-cyclopropyl-2-(4-(3-methoxypropanoyl)-3-methylpiperazin-1-yl)-4-methylnicotinonitrile], the IC50 in assay [1] was less than 500 nM; in assay [2], 1000 to 10000 nM; in assay [3], 1000 to 10000 nM.

Consider `CCO[C@H]1C[C@@H]1C(=O)N1CCN(c2nc(C3CC3)c(-c3cccc4cnccc34)cc2C#N)C[C@H]1C1CC1` [Compound 518, 6-cyclopropyl-2-((R)-3-cyclopropyl-4-((1S,2S)-2-ethoxycyclopropanecarbonyl)piperazin-1-yl)-5-(isoquinolin-5-yl)nicotinonitrile], for which the IC50 in assay [1] and in assay [3] was less than 500 nM each time.

With `C=Cc1ncc2c(-c3cc(C#N)c(N4CCN(C(=O)CCO)[C@H](C(C)C)C4)nc3C3CC3)cccc2n1` [Compound 650, (R)-6-cyclopropyl-2-(4-(3-hydroxypropanoyl)-3-isopropylpiperazin-1-yl)-5-(2-vinylquinazolin-5-yl)nicotinonitrile], the IC50 in assay [1] and in assay [3] was less than 500 nM in each case.

For `C=Cc1ncc2c(-c3cc(C#N)c(N4CCN(C(=O)CCO)[C@H](C5CC5)C4)nc3C3CC3)cccc2n1` [Compound 651, (R)-6-cyclopropyl-2-(3-cyclopropyl-4-(3-hydroxypropanoyl)piperazin-1-yl)-5-(2-vinylquinazolin-5-yl)nicotinonitrile], the IC50 in assay [1] and in assay [3] was less than 500 nM in each case.

Regarding `C=Cc1cc(-c2cc(C#N)c(N3CCN(C(=O)CCOC)[C@H](C4CC4)C3)nc2C2CC2)c2ccncc2n1` [Compound 658, (R)-6-cyclopropyl-2-(3-cyclopropyl-4-(3-methoxypropanoyl)piperazin-1-yl)-5-(2-vinyl-1,7-naphthyridin-4-yl)nicotinonitrile], the IC50 in assay [1] and in assay [3] was less than 500 nM each time.

In the case of `N#Cc1cc(-c2cnnc(OS(=O)(=O)C(F)(F)F)c2)c(C2CC2)nc1N1CCN(C(=O)C2CC2)[C@H](C2CC2)C1` [Compound 687, (R)-5-(5-cyano-6-(4-(cyclopropanecarbonyl)-3-cyclopropylpiperazin-1-yl)-2-cyclopropylpyridin-3-yl)pyridazin-3-yl trifluoromethanesulfonate], the IC50 was less than 500 nM in assay [1] and 500 to 1000 nM in assay [3].

`C=Cc1cc(-c2cc(C#N)c(N3CCN(C(=O)CCO)[C@H](C4CC4)C3)nc2C2CC2)c2cccnc2n1` [Compound 691]: the IC50 in assay [3] was less than 500 nM.

Turning to `C=Cc1cc(-c2cc(C#N)c(N3CCN(C(=O)C4CC4)[C@H](C4CC4)C3)nc2C2CC2)nc(N)n1` [Compound 700, (R)-5-(2-amino-6-vinylpyrimidin-4-yl)-2-(4-(cyclopropanecarbonyl)-3-cyclopropylpiperazin-1-yl)-6-cyclopropylnicotinonitrile], the IC50 in assay [2] and in assay [3] was less than 500 nM in each case.

With `N#Cc1cc(Cc2ccnc(Cl)c2)c(C2CC2)nc1N1CCN(C(=O)CCO)[C@H](C2CC2)C1` [Compound 708, (R)-5-((2-chloropyridin-4-yl)methyl)-6-cyclopropyl-2-(3-cyclopropyl-4-(3-hydroxypropanoyl)piperazin-1-yl)nicotinonitrile], the values for the IC50 in assay [1] and in assay [3] were less than 500 nM and 1000 to 10000 nM, respectively.

For the compound `C=Cc1ccnc(Nc2cc(C#N)c(N3CCN(C(=O)CCO)[C@H](C(C)C)C3)nc2C2CC2)c1` [Compound 757, (R)-6-cyclopropyl-2-(4-(3-hydroxypropanoyl)-3-isopropylpiperazin-1-yl)-5-((4-vinylpyridin-2-yl)amino)nicotinonitrile], the half-maximal inhibitory concentration (IC50) in assay [1] and in assay [3] was less than 500 nM each time.

Regarding `C=Cc1ccnc(Nc2cc(C#N)c(N3CCN(C(=O)CCOC)[C@H](C(C)C)C3)nc2C2CC2)c1` [Compound 758, (R)-6-cyclopropyl-2-(3-isopropyl-4-(3-methoxypropanoyl)piperazin-1-yl)-5-((4-vinylpyridin-2-yl)amino)nicotinonitrile], the IC50 in assay [1] and in assay [3] was less than 500 nM each time.

With `C=Cc1cc(-c2cc(C#N)c(N3CCN(C(=O)COC)[C@H](C4CC4)C3)nc2C2CC2)nc(N)n1` [Compound 759, (R)-5-(2-amino-6-vinylpyrimidin-4-yl)-6-cyclopropyl-2-(3-cyclopropyl-4-(2-methoxyacetyl)piperazin-1-yl)nicotinonitrile], the IC50 in assay [1] and in assay [3] was less than 500 nM in each case.

With `C=Cc1cc(-c2c(C3CC3)nc(N3CCN(C(=O)CCO)[C@H](C(C)C)C3)c(C#N)c2C)cnn1` [Compound 773, (R)-6-cyclopropyl-2-(4-(3-hydroxypropanoyl)-3-isopropylpiperazin-1-yl)-4-methyl-5-(6-vinylpyridazin-4-yl)nicotinonitrile], the IC50 in assay [1] and in assay [3] was less than 500 nM each time.

For `N#Cc1cc(Nc2cc(C#N)c(N3CCN(C(=O)C[C@H]4CCO4)[C@H](C4CC4)C3)nc2C2CC2)ccn1` [Compound 783, 4-(5-cyano-2-cyclopropyl-6-((R)-3-cyclopropyl-4-(2-((R)-oxetan-2-yl)acetyl)piperazin-1-yl)pyridin-3-ylamino)picolinonitrile], the IC50 in assay [2] and in assay [3] was less than 500 nM each time.
